One assay deals with T1, Ba/F3-Syk cells (Homo sapiens, UniProt P43405).
T1 construct: fused on or other part: Possible but unprinted fusion partner: TEL (ETV6), the usual partner for Ba/F3 lines transformed by Syk; Nothing on a partner is printed
The assay is described as follows: Ba/F3 Proliferation Assay, Ba/F3-Syk cells (Resazurin). It counts as cell-based. The settings on record: 48-hour incubation. The protocol:
(§1) Ba/F3-Syk and Ba/F3-WT (wild type) cells were maintained at ≤1×10^6 cell/mL in RPMI (Life Technologies) with 10% FBS at 37° C. and 5% CO2 for a maximum of four weeks. Ba/F3-WT additionally contained 2 ng/mL mIL-3 (R&D Systems) to induce cellular growth. Cells were counted and dispensed at 5000 cells/well using a Multidrop Liquid Dispenser in a volume of 45 μL into black 384-well TC treated plates (Greiner) and incubated for four hours in complete media (+mIL-3 for Ba/F3-WT). Compounds were serially diluted in 100% DMSO, prior to an intermediate dilution in RPMI media. 5 μL of compound (0.4% final DMSO) was added to the cells, followed by a 48-hour incubation period. 5 μL of Resazurin (60 μM final) was then added and cells were incubated at 37° C. for three hours, before fluorescence (λex530/λem585) was measured using an Ensight Multimode Plate Reader (Perkin Elmer).
(In general: Resazurin is reduced to fluorescent resorufin, in cell work by metabolically active cells.)

The test system of assay [1] is Ba/F3-WT (wild type) cells. The assay is described as follows: Ba/F3 Proliferation Assay, Ba/F3-WT (wild type) cells with mIL-3 (Resazurin). The format is cell-based. The settings on record: Mus musculus, BaF3, 48 h, Ba/F3-WT cells +mIL-3, 48-hour incubation. The protocol:
as §1

Some results are limits rather than exact numbers.

A word on the EC50: it is the concentration that produces a half-maximal response. Lower therefore signals a more potent agent.

As for `CC[C@H]1CNC[C@@H](COc2nc(-c3cnn(C(C)(C)C)c3)cc3ncccc23)O1` [Compound 2.92, 7-(1-tert-butyl-1H-pyrazol-4-yl)-5-{[(2S,6S)-6-ethylmorpholin-2-yl]methoxy}-1,6-naphthyridine], the half-maximal effective concentration (EC50) at Ba/F3-Syk cells is 29 nM; in assay [1], 599 nM.
For `CC[C@@H]1CNC[C@@H](COc2nc(-c3cnn(C(C)(C)C)c3)cc3ncccc23)O1` [Compound 2.93, 7-(1-tert-butyl-1H-pyrazol-4-yl)-5-{[(2S,6R)-6-ethylmorpholin-2-yl]methoxy}-1,6-naphthyridine], in that order: 27.7 nM and 1240 nM.
With `CC(C)n1cc(-c2cc3ncccc3c(OC[C@H]3OCCN[C@H]3C)n2)cn1` [Compound 2.96, 5-{[(2S,3S)-3-methylmorpholin-2-yl]methoxy}-7-[1-(propan-2-yl)-1H-pyrazol-4-yl]-1,6-naphthyridine], the EC50 on Ba/F3-Syk cells stood at 20.1 nM; in assay [1], 724 nM.
For `O=C1CCn2cc(-c3cc(OC[C@@H]4CNCCO4)c4cccnc4c3)cc21` [Compound 3, 6-(5-{[(2S)-morpholin-2-yl]methoxy}quinolin-7-yl)-2,3-dihydro-1H-pyrrolizin-1-one], in that order: 162 nM and 1950 nM.
Consider `c1cnc2cc(-c3cnn(C4CC4)c3)cc(OC[C@@H]3CNCCO3)c2c1` [Compound 3.3, 7-(1-cyclopropyl-1H-pyrazol-4-yl)-5-{[(2S)-morpholin-2-yl]methoxy} quinoline], for which the figures for the EC50 (at Ba/F3-Syk cells; in assay [1]) were 179 nM and 2590 nM, respectively.
For `c1cnc2cc(-c3cnn(C4CCC4)c3)cc(OC[C@@H]3CNCCO3)c2c1` [Compound 3.5, 7-(1-cyclobutyl-1H-pyrazol-4-yl)-5-{[(2S)-morpholin-2-yl]methoxy}quinoline], in that order: 61.8 nM and 902 nM.
The like results for `Cc1cc(-c2cc(OC[C@@H]3CNCCO3)c3cccnc3c2)cs1` [Compound 3.7, 7-(5-methylthiophen-3-yl)-5-{[(2S)-morpholin-2-yl]methoxy}quinoline] were, in that order, 134 nM and 3730 nM.
For the compound `c1cnc2cc(-c3cc[nH]c3)cc(OC[C@@H]3CNCCO3)c2c1` [Compound 3.9, 5-{[(2S)-morpholin-2-yl]methoxy}-7-(1H-pyrrol-3-yl)quinoline], the values for the EC50 (on Ba/F3-Syk cells; in assay [1]) were 167 nM and above 10000 nM, respectively.
For `CC1(C)CNC[C@@H](COc2cc(-c3cnn(C(F)F)c3)cc3ncccc23)O1` [Compound 3.11, 7-[1-(difluoromethyl)-1H-pyrazol-4-yl]-5-{[(2S)-6,6-dimethylmorpholin-2-yl]methoxy}quinoline], in that order: 163 nM and 2140 nM.
For `CC1(C)CNC[C@@H](COc2cc(-c3cnn(CC(F)F)c3)cc3ncccc23)O1` [Compound 3.12, 7-[1-(2,2-difluoroethyl)-1H-pyrazol-4-yl]-5-{[(2S)-6,6-dimethylmorpholin-2-yl]methoxy}quinoline], in that order: 87 nM and 1680 nM.
For `CC1(C)CNC[C@@H](COc2cc(-c3cnn(C4CCC4)c3)cc3ncccc23)O1` [Compound 3.13, 7-(1-cyclobutyl-1H-pyrazol-4-yl)-5-{[(2S)-6,6-dimethylmorpholin-2-yl]methoxy}quinoline], in that order: 35.8 nM and 814 nM.
As to `CC1(C)CNC[C@@H](COc2cc(-c3ccn(C(C)(C)C)c3)cc3ncccc23)O1` [Compound 3.16, 7-(1-tert-butyl-1H-pyrrol-3-yl)-5-{[(28)-6,6-dimethylmorpholin-2-yl]methoxy}quinoline], the EC50 at Ba/F3-Syk cells is 11.9 nM; in assay [1] it was 6170 nM.
The like results for `CC(C)(C)n1ccc(-c2cc(OC[C@@H]3CNCC4(CC4)O3)c3cccnc3c2)c1` [Compound 3.18, 7-(1-tert-butyl-1H-pyrrol-3-yl)-5-{[(5S)-4-oxa-7-azaspiro[2.5]octan-5-yl]methoxy}quinoline] were, in that order, 23.1 nM and 5420 nM.
In the case of `CC(C)(C)n1cc(-c2cc(OC[C@@H]3CNCC4(CC4)O3)c3cccnc3c2)cn1` [Compound 3.20, 7-(1-tert-butyl-1H-pyrazol-4-yl)-5-{[(5S)-4-oxa-7-azaspiro[2.5]octan-5-yl]methoxy}quinoline], the EC50 at Ba/F3-Syk cells came out at 35.5 nM; in assay [1], 1960 nM.
For `CC(C)n1cc(-c2cc(OC[C@@H]3CNCC4(CC4)O3)c3cccnc3c2)cn1` [Compound 3.21, 5-{[(SS)-4-oxa-7-azaspiro[2.5]octan-5-yl]methoxy}-7-[1-(propan-2-yl)-1H-pyrazol-4-yl]quinoline], in that order: 13.1 nM and 614 nM.
For `Cn1ccc(-c2cc(OC[C@@H]3CNCCCO3)c3cccnc3c2)c1` [Compound 3.22, 7-(1-methyl-1H-pyrrol-3-yl)-5-{[(2S)-1,4-oxazepan-2-yl]methoxy}quinoline], in that order: 99 nM and 9680 nM.
The like results for `c1cnc2cc(-c3cc4n(c3)CCC4)cc(OC[C@@H]3CNCCO3)c2c1` [Compound 4, 7-(2,3-dihydro-1H-pyrrolizin-6-yl)-5-{[(2S)-morpholin-2-yl]methoxy}quinoline] were, in that order, 87.7 nM and 7210 nM.
In the case of `Cn1cc(-c2cc(OC[C@@H]3CNCCO3)c3cncnc3c2)cn1` [Compound 4.1, 7-(1-methyl-1H-pyrazol-4-yl)-5-{[(2S)-morpholin-2-yl]methoxy} quinazoline], the 50% effective concentration (EC50) at Ba/F3-Syk cells was determined as 2320 nM; in assay [1], 7430 nM.
For `CC1(C)CNC[C@@H](COc2cc(-c3cnn(C(C)(C)C)c3)cc3ncncc23)O1` [Compound 4.2, 7-(1-tert-butyl-1H-pyrazol-4-yl)-5-{[(2S)-6,6-dimethyl-morpholin-2-yl]methoxy} quinazoline], in that order: 171 nM and above 10000 nM.
Take `Cn1ccc(-c2cc(OC[C@@H]3CNCCO3)c3cncnc3c2)c1` [Compound 4.3, 7-(1-methyl-1H-pyrrol-3-yl)-5-{[(2S)-morpholin-2-yl]methoxy} quinazoline]: the values for the EC50 (at Ba/F3-Syk cells; in assay [1]) were 586 nM and 5010 nM, respectively.
The like results for `CCn1ccc(-c2cc3ncccc3c(OC[C@@H]3CNCCO3)n2)c1` [Compound 6.1, 7-(1-ethyl-1H-pyrrol-3-yl)-5-{[(2S)-morpholin-2-yl]methoxy}-1,6-naphthyridine] were, in that order, 38.8 nM and 2660 nM.
The like results for `c1cnc2cc(-c3ccn(C4CCC4)c3)nc(OC[C@@H]3CNCCO3)c2c1` [Compound 6.3, 7-(1-cyclobutyl-1H-pyrrol-3-yl)-5-{[(2S)-morpholin-2-yl]methoxy}-1,6-naphthyridine] were, in that order, 51.9 nM and 2460 nM.
For `c1cnc2cc(-c3ccn(CC4CC4)c3)nc(OC[C@@H]3CNCCO3)c2c1` [Compound 6.4, 7-[1-(cyclopropylmethyl)-1H-pyrrol-3-yl]-5-{[(2S)-morpholin-2-yl]methoxy}-1,6-naphthyridine], in that order: 74.8 nM and 2650 nM.
As to `FC(F)Cn1cc(-c2cc3ncccc3c(OC[C@@H]3CNCCO3)n2)cn1` [Compound 6.6, 7-[1-(2,2-difluoroethyl)-1H-pyrazol-4-yl]-5-{[(2S)-morpholin-2-yl]methoxy}-1,6-naphthyridine], the EC50 at Ba/F3-Syk cells is 81.9 nM; in assay [1], 1920 nM.
With `F/C=C\n1cc(-c2cc3ncccc3c(OC[C@@H]3CNCCO3)n2)cn1` [Compound 6.7, 7-{1-[(1Z)-2-fluoroethenyl]-1H-pyrazol-4-yl}-5-{[(2S)-morpholin-2-yl]methoxy}-1,6-naphthyridine], the figures for the EC50 (on Ba/F3-Syk cells; in assay [1]) were 113 nM and 3400 nM, respectively.
In the case of `F/C=C/n1cc(-c2cc3ncccc3c(OC[C@@H]3CNCCO3)n2)cn1` [Compound 6.8, 7-{1-[(1E)-2-fluoroethenyl]-1H-pyrazol-4-yl}-5-{[(2S)-morpholin-2-yl]methoxy}-1,6-naphthyridine], the EC50 at Ba/F3-Syk cells amounted to 181 nM; in assay [1], 4880 nM.
The like results for `c1cnc2cc(-c3cnn(CC4CC4)c3)nc(OC[C@@H]3CNCCO3)c2c1` [Compound 6.12, 7-[1-(cyclopropylmethyl)-1H-pyrazol-4-yl]-5-{[(2S)-morpholin-2-yl]methoxy}-1,6-naphthyridine] were, in that order, 66.7 nM and 994 nM.
Take `CC1(C)CNC[C@@H](COc2nc(-c3ccn(C4CCC4)c3)cc3ncccc23)O1` [Compound 6.14, 7-(1-cyclobutyl-1H-pyrrol-3-yl)-5-{[(2S)-6,6-dimethylmorpholin-2-yl]methoxy}-1,6-naphthyridine]: the EC50 was 14.3 nM on Ba/F3-Syk cells and 1800 nM in assay [1].
In the case of `CC1(C)CNC[C@@H](COc2nc(-c3ccn(CC4CC4)c3)cc3ncccc23)O1` [Compound 6.15, 7-[1-(cyclopropylmethyl)-1H-pyrrol-3-yl]-5-{[(2S)-6,6-dimethylmorpholin-2-yl]methoxy}-1,6-naphthyridine], the half-maximal effective concentration (EC50) at Ba/F3-Syk cells was 20.3 nM; in assay [1] it was 2340 nM.
For `FC1(F)CC1n1ccc(-c2cc3ncccc3c(OC[C@@H]3CNCCO3)n2)c1` (stereo partly drawn) [Compound 6.17, 7-[1-(2,2-difluorocyclopropyl)-1H-pyrrol-3-yl]-5-{[(2S)-morpholin-2-yl]methoxy}-1,6-naphthyridine], in that order: 79.9 nM and 2400 nM.

(Values after US20250263408A1 (Uniquest Pty Ltd, priority 2022, published 2025).)
